Laboratory results: patent publication US20140135272A1, “NOVEL ZINC FINGER-LIKE PEPTIDE COMPOSITIONS AS POTENT AGENTS IN CANCER PREVENTION AND TREATMENT” (priority 2011, published 2014)
“Also recorded” adds a separate entry of the source. Square brackets hold non-standard residues; d marks the D form. Ends that are not written are not given here. pS = N[C@@H](COP(=O)(O)O)C(=O)O

Legend:
Assay type in all cases: in vivo, nude mice
BCC cells [1] = experiment: Example 2: peptide pre-injection plus boost injection, BCC cell inoculation, tumor volumes; conditions: peptide 2 mM, 100 μl i.v. per week for 3 weeks before BCC inoculation; boost per week for 3 weeks 2 months later; vs H2O control
Procedure: (§1) In the following examples, 8-week nude mice were used as host subjects to perform in vivo experiments. The nude mice were placed in room temperature and suitable humidity, and supplied with sterile water and standard food for 2 consecutive weeks before performing experiments. Then, the nude mice were injected with zinc finger-like peptide and tumor cells. The detailed processes for the experiments are described as follows.
(§2) First, manually synthesized zinc finger-like peptide (Genemed Synthesis Inc., San Antonio, Tex., USA) was resuspended in degassed purified water to obtain 1-5 mM of zinc finger-like peptide solution (100 μl). Herein, the solution for suspending the zinc finger-like peptide is not particularly limited. Preferably, the zinc finger-like peptide is resuspended in degassed purified water, in order to prevent the self-polymerization of the zinc finger-like peptide and loss its ability to inhibit tumor cell growth.
(§3) In the present experimental group, zinc finger-like peptide with sequence shown in SEQ ID NO: 1 was injected into nude mice.
Nude mice were injected with an intravenous injection of peptide (2 mM, 100 μl PBS) via tail veins per week for 3 consecutive weeks, followed by inoculating BCC cells (2 million cells/100 μl PBS) at both the right and left flanks. 2 months later, boost injection of peptide was carried out per week for 3 consecutive weeks. […]

[2] = system: breast carcinoma MDA-MB-435s; experiment: Example 8: breast carcinoma MDA-MB-435s inoculated first, peptide treatment from the 70th day, tumor volumes; conditions: peptide 2 mM, 100 μl per week for 4 weeks from the 70th day
Procedure: as §1, §2
In the present experimental group, zinc finger-like peptide with sequence shown in SEQ ID NO: 2 was injected subcutaneously into nude mice.
Nude mice received an injection of breast carcinoma MDA-MB-435s (2 million cells/100 μl PBS) […] at both the right and left flanks on the […] day, followed by injecting peptide (2 mM, 100 μl) per week for 4 consecutive weeks from the 70th day. The tumor volumes (mm^3) were observed daily during the whole experiment.
The process of the present control group was the same as that of the experimental group, except that the zinc finger-like peptide of the experimental group was substituted with PBS buffer (100 μl) in the present control group.

[3] = system: basal cell carcinoma (BCC) cells; experiment: Example 1: peptide pre-injection, then basal cell carcinoma (BCC) cell inoculation, tumor volumes; conditions: peptide 2 mM, 100 μl PBS i.v. tail vein per week for 3 weeks before BCC inoculation at both flanks; vs PBS control
Procedure: as §1, §2
Herein, zinc finger-like peptide with sequence shown in SEQ ID NO: 2 was injected into nude mice.
In particularly, nude mice were injected with an intravenous injection of peptide (2 mM, 100 μl phosphate-buffered saline or PBS) via tail veins per week for 3 consecutive weeks, followed by inoculating basal cell carcinoma (BCC) cells (2 million cells/100 μl PBS) at both the right and left flanks. […]

[4] = system: malignant melanoma B 16F10; experiment: Example 4: peptide variants pre-injected, then malignant melanoma B16F10 inoculation, tumor volumes and death; conditions: peptide 2 mM, 100 μl i.v. per week for 2 weeks before B16F10 inoculation
Procedure: as §1, §2
Nude mice received an intravenous injection of peptide (2 mM, 100 μl) via tail veins per week for 2 consecutive weeks, followed by inoculating malignant melanoma B 16F10 (2 million cells/100 μl PBS) at both the right and left flanks. The tumor volumes (mm^3) were observed daily during the whole experiment.
as §3
In the present experimental group, zinc finger-like peptide with sequence shown in SEQ ID NO: 1, in which the fifth amino acid, serine was phosphorylated, and injected into nude mice.
In the present experimental group, zinc finger-like peptide with sequence shown in SEQ ID NO: 6 was injected into nude mice.
In the present experimental group, zinc finger-like peptide with sequence shown in SEQ ID NO: 6, in which the fourth amino acid serine was phosphorylated, and injected nude mice.
In the control group, H2O (100 μl) was injected into nude mice.

BCC cells [5] = experiment: Example 5: expression plasmid injection, then BCC cell inoculation, tumor volumes; conditions: expression plasmid 100 μl via tail veins per week for 2 weeks before BCC inoculation; vs vector containing EGFP only
Procedure: as §1
The cDNA of zinc finger-like peptide was inserted into vector pCR3.1/CMV to form a zinc finger-like peptide expression plasmid, wherein the zinc finger-like peptide was connected to the c-terminal of EGFP.
In the present experimental group, the zinc finger-like peptide expression plasmid containing DNA sequence for expressing the zinc finger-like peptide (SEQ ID NO: 4) (100 μl) was injected into nude mice via tail veins per week for 2 consecutive weeks, to express zinc finger-like peptide. Then, BCC cells (2 million cells/100 μl medium) were inoculated into nude mice at both the right and left flanks. The tumor volumes (mm^3) were observed daily during the whole experiment.
The process of the present experimental group was the same as that of the experimental group 1, except that the DNA sequence shown in SEQ ID NO: 4 was substituted with DNA sequence shown in SEQ ID NO: 7. […]

MSSRRSSGCKYCEQD [SEQ ID NO: 5, zinc finger-like peptide with serine mutation]
tumor growth (tumor volumes) (BCC cells [1]): the therapeutic effect of the zinc finger-like peptide is decreased; also recorded: still has better treatment effect than H2O

MSSRRSSSCKYCEQDFRAHTQKNAATPFLAN [SEQ ID NO: 2, zinc finger-like peptide, manually synthesized]
day from which tumor volumes were significantly increased ([2]; MDA-MB-435s inoculated first): 89 days
maximum tumor volumes ([2]; observed on the 100th day): 1000 mm^3
tumor volumes reduced to ([2]; on the 113th day, after the maximum): 50%
tumor cell growth terminated compared to the control group ([2]; vs PBS control group): 75%
tumor growth (tumor volumes) [3]: inhibited the growth of skin cancer cell on nude mice

RSSSCK [SEQ ID NO: 6, zinc finger-like peptide, called cysteine deletion]
day on which the nude mice died [4]: 31 days

SEQ ID NO: 1, in which the fifth amino acid, serine was phosphorylated: SEQ ID NO: 1 (RRSSSCK) with the fifth amino acid, serine, phosphorylated (RRSS[pS]CK)
day on which the nude mice died [4]: 35 days

SEQ ID NO: 6, in which the fourth amino acid serine was phosphorylated: SEQ ID NO: 6 (RSSSCK) with the fourth amino acid serine phosphorylated (RSS[pS]CK)
day on which the nude mice died [4]: 35 days

B1: atgagcagca gaaggtcgtc ttcttgtaaa tattgtgaac aggacttccg agcacacaca cagaagaatg cggccacacc cttcctagcc aac (nucleic acid)
chain: ATGAGCAGCAGAAGGTCGTCTTCTTGTAAATATTGTGAACAGGACTTCCGAGCACACACACAGAAGAATGCGGCCACACCCTTCCTAGCCAAC
modifications: expressed or natural sequence
tumor growth (tumor volumes) (BCC cells [5]): the growth of tumor cells can be inhibited and the volume thereof can be reduced

B2: atgagcagca gaaggtcgtc tggctgtaaa tattgtgaac aggacttccg agcacacaca cagaagaatg cggccacacc cttcctagcc aac (nucleic acid)
chain: ATGAGCAGCAGAAGGTCGTCTGGCTGTAAATATTGTGAACAGGACTTCCGAGCACACACACAGAAGAATGCGGCCACACCCTTCCTAGCCAAC
modifications: chemistry not given here
tumor growth (tumor volumes) (BCC cells [5]): can slightly inhibit the growth of the tumor cells
